Laboratory results published in article PMC5131364, “Pharmacologic modulation of RORγt translates to efficacy in preclinical and translational models of psoriasis and inflammatory arthritis” (Scientific Reports, 2016).
Like-named read-outs stand apart in the source and are kept apart here.

What was measured:
Type in all cases: cell-based
[1] = tested on: CLA+ memory T cells / autologous epidermal cells from guttate psoriasis patients; assay: Co-culture of human psoriatic CLA+ memory T cells with epidermal cells, streptococcal extract
Excerpt: The study protocol was reviewed and subsequently approved by the Medical Ethics Committee of the Hospitals where the biopsies and blood were procured. All psoriasis donors in this study were required to be without disease-specific systemic therapy for at least 4 weeks or topical treatment for at least 2 weeks before the clinical samples were obtained. Circulating CLA^+/CLA^− CD45RO^+ CD3^+ cells and lesional epidermal cells were obtained from the same guttate psoriasis patient following the procedure described previously. In brief, memory T cell populations were isolated and enriched from peripheral blood lymphocytes by immunomagnetic separations. Epidermal cell suspensions were obtained from lesional biopsies by a dispase/trypsin treatment. The culture system was performed by seeding 50,000 circulating CLA^+ or CLA^− memory T cells with 30,000 autologous epidermal cells in a 96-flat bottom microwell plate (Nunc, Roskilde, Denmark) with culture medium (RPMI with 10% fetal calf serum). […] Cytokines in supernatants were quantified by multiplex fluorescent bead-based immunoassay, Diaclone DIAplex kit (Gen-Probe, Besançon, France), and data were collected with a F500 Flow Cytometer (Beckman Coulter, Fullerton, CA).

PBMC from healthy donors = assay: IL-17A production from PBMC of healthy donors; details: Homo sapiens, typically observed
Excerpt: Frozen PBMCs of healthy and rheumatoid arthritis patients were obtained from SeraCare Life Sciences (Gaithersburg, MD). […] 3 days later, supernatants were collected and analyzed by MSD multi-spot assay or ELISA for IL-17A, IL-22 and IL-13 production.

[2] = tested on: naïve CD4+ T cells under Th17-polarizing conditions; assay: In vitro mouse Th17 differentiation; details: for IC50: Mus musculus, CD4+ T
Excerpt: The following antibodies (anti-mouse or anti-human) were purchased from BD Biosciences (San Diego, CA) or eBioscience (San Diego, CA): anti-CD3-FITC (mouse 17A2 and human SK7), anti-CD4-allophycocyanin (APC), anti-CD4-PerCp, anti-CD4-FITC, anti-CD4-PE (mouse GK1.5 and human SK3), anti-CD44-PerCp (mouse IM7), anti-γδ TCR-FITC, anti-γδ TCR-PE (mouse GL3 and human B1), anti-CD62L-FITC (mouse MEL-14 and human SK11), anti-CD45RO-APC (human UCHL1), anti-CCR6-PE (human 11A9), anti-CD45-PerCp (mouse 30-F11). Human or mouse anti-IFNγ (mouse XMG1.2 and human 4S.B3), anti-TNFα (mouse MP6-XT22 and human MAB11), anti-IL-17A (mouse eBio17B7 and human eBio64DEC17), anti-IL-22 (mouse 1H8PWSR and human 22URTI), and anti-Foxp3 (mouse FJK-16s and human 36A/E7), all PE or APC conjugated, were purchased from eBioscience (San Diego, CA). Human and mouse APC conjugated CD1d tetramers pre-loaded with alpha-GalCer and negative controls were obtained from ProImmune. For intracellular staining cells were stimulated for 4 hours at 37 °C with PMA and ionomycin (0.5 μg/ml each) in the presence of brefeldin A and monensin or with leukocyte activation cocktail (BD Bioscience, San Diego, CA). Cells were stained with fluorescence-labeled antibodies for surface marker, then fixed/permeabilized (eBioscience) and stained with antibodies for intracellular cytokines. For Foxp3 staining cells were fixed/permeabilized using transcription factor buffer set (eBioscience). The data were acquired on a FACS Calibur (BD Bioscience) and analyzed using FlowJo software (Tree Star, San Carlos, CA).
Naïve CD4^+ T cells were isolated from splenocytes of C57BL/6N mice using a naïve CD4^+ T cell isolation kit II (Miltenyl Biotec, Auburn, CA), following the manufacturer’s instructions. Cells were resuspended in culture medium (RPMI-1640 medium supplemented with 10% fetal bovine serum, 50 IU/ml penicillin, 50 μg/ml streptomycin, 2 mM glutamine, and 55 μM β-mercaptoethanol), and were added to 96-well plates at 2 × 10^5 per well. […] Cells were incubated for 1 hour, after which Th17 cell differentiation medium was added with final concentrations of 1 μg/ml anti-CD3, 5 μg/mL anti-CD28 (BD Pharmingen, San Diego, CA), 10 μg/ml anti-IL-4, 10 μg/ml anti-IFNγ, 10 ng/mL IL-23, 10 ng/mL IL-6, and 10 ng/ml TGFβ (R&D Systems, Minneapolis, MN). Cells were cultured at 37 °C and 5% CO2 for 3 days. Supernatants were collected and the accumulated cytokines in culture were measured by ELISA kits (R&D Systems, Minneapolis, MN) following manufacturers’ instructions. Cells were harvested for staining and flow cytometry analysis.

[3] = 1 μM, SE-stimulated CLA+/epidermal cell co-culture, not statistically significant

COc1nc2ccc([C@@](O)(c3ccc(C)nc3C)c3cnnn3C)cc2c(Cl)c1Cc1ccc(C(F)(F)F)cc1 [JNJ-54271074]
TNFα and IL-8 production ([1]; 1 μM, SE-stimulated CLA+/epidermal cell co-culture): no effect
increase of IFNγ production [1, 3]: 64%
reduction of IL-6 [1, 3]: 32%
reduction of IL-17F production [1, 3]: 40%
decrease of IL-17A production ([1]; 1 μM, SE-stimulated CLA+/epidermal cell co-culture, vs DMSO, significant): 78%
IL-17A production in human cell co-culture model ([1]; discussion, in words): significant inhibition
IC50 (PBMC from healthy donors): 3 ± 0.9 nM
IL-17A-producing cells ([2]; 1 μM, flow cytometry): almost completely abolished
IC50 ([2]; Th17-polarizing condition, supernatant, read-out: IC50, IL-17A production): 17 nM
IC50 ([2]; flow cytometry, read-out: IC50, total IL-17A-producing cells): 21 nM
TNFα production ([2]; Th17-polarizing condition, supernatant): did not inhibit
